In US10363251B2, “(+)-morphinans as antagonists of toll-like receptor 9 and therapeutic uses thereof” (Mallinckrodt LLC, priority 2009, dated 2019):

Key:
TLR7 = biological target: T1, TLR7 (Homo sapiens, UniProt Q9NYK1); assay: TLR7 antagonist screening, NF-κB-inducible SEAP reporter in HEK293 cells; type: cell-based; conditions: for Average % Inhibition at TLR7: 10 μM, stimulated with CL097 at 1 μg/ml
T1 construct: expressed in transfected cells; host or cells: HEK293
T1 sequence (Q9NYK1 27-1049): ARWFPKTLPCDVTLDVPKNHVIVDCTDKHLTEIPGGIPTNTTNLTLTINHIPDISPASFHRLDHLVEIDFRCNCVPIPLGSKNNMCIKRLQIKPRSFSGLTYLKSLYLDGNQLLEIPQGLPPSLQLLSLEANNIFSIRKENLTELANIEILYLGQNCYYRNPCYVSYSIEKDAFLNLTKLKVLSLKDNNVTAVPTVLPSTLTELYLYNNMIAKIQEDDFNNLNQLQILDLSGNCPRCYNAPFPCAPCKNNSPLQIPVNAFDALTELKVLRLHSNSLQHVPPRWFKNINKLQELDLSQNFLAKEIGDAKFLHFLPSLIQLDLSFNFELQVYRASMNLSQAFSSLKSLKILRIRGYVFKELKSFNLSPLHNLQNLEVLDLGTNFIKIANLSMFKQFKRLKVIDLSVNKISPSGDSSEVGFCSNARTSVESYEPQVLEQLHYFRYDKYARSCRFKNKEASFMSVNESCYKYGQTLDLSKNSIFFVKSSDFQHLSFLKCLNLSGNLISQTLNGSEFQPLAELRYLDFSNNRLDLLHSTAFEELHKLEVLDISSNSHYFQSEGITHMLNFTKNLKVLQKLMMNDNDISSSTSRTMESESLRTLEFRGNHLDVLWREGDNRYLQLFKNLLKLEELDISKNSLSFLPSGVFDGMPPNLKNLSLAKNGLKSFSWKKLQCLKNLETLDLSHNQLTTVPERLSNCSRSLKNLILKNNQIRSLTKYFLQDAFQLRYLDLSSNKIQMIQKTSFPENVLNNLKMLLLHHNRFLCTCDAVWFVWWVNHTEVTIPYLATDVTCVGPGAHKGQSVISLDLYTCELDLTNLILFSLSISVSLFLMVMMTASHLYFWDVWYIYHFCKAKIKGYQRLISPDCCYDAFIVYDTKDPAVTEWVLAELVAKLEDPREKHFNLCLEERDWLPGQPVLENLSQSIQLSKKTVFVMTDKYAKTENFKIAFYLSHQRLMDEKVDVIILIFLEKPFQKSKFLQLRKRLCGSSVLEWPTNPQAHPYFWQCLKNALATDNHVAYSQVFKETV
Experimental: (§1) Stimulation of TLRs 2, 3, 4, 5, 7, 8, and 9 was determined by assessing activation of the transcription factor NF-κB in HEK293 cells that were engineered to express the corresponding receptors. Assessment of TLR stimulation was based on the use of an NF-κB-inducible secreted alkaline phosphatase (SEAP) reporter system in which the SEAP reporter was under the control of a promoter inducible by NF-κB. Thus, the degree of activation of TLRs can be indirectly quantified spectrophotometrically by measuring the amount of the SEAP reporter that is produced.
(§2) The appropriate TLR-expressing cells were plated in Growth Medium in a 96-well plate (25,000-50,000 cells/well). The cells were stimulated with the appropriate positive control ligand or no ligand was added (negative control). The positive control ligands were: HKLM was used to stimulate TLR2; poly(I:C) was used to stimulate TLR3; LPS was used to stimulate TLR4; Flagellin was used to stimulate TLR5; CL097 was used to stimulate TLR7; CL075 was used to stimulate TLR8; CpG oligodeoxynucleotide (ODN) 2006 was used to stimulate TLR9. To test whether (+)-morphinans could block that activation of the TLR, the cells were pretreated with an antagonist for 30 minutes prior to addition of the positive control ligand. […] After a 16-20 hr incubation period at 37° C. in a CO2 incubator, 20 μL of the cell culture supernatant was added to 180 μL of QUANTI-Blue™ Media (InvivoGen, San Diego, Calif.), and the resulting solutions were incubated at 37° C. for an additional 1-3 hours according to the manufacturer's instructions. The OD's of the samples were then read at 650 nm on a Beckman Coulter AD 340C Absorbance Detector.

TLR8 = biological target: T2, TLR8 (Homo sapiens, UniProt Q9NR97); assay: TLR8 antagonist screening, NF-κB-inducible SEAP reporter in HEK293 cells; type: cell-based; conditions: for Average % Inhibition at TLR8: 10 μM, stimulated with CL075 at 1 μg/ml
T2 construct: expressed in transfected cells; host or cells: HEK293
T2 sequence (Q9NR97 27-1041): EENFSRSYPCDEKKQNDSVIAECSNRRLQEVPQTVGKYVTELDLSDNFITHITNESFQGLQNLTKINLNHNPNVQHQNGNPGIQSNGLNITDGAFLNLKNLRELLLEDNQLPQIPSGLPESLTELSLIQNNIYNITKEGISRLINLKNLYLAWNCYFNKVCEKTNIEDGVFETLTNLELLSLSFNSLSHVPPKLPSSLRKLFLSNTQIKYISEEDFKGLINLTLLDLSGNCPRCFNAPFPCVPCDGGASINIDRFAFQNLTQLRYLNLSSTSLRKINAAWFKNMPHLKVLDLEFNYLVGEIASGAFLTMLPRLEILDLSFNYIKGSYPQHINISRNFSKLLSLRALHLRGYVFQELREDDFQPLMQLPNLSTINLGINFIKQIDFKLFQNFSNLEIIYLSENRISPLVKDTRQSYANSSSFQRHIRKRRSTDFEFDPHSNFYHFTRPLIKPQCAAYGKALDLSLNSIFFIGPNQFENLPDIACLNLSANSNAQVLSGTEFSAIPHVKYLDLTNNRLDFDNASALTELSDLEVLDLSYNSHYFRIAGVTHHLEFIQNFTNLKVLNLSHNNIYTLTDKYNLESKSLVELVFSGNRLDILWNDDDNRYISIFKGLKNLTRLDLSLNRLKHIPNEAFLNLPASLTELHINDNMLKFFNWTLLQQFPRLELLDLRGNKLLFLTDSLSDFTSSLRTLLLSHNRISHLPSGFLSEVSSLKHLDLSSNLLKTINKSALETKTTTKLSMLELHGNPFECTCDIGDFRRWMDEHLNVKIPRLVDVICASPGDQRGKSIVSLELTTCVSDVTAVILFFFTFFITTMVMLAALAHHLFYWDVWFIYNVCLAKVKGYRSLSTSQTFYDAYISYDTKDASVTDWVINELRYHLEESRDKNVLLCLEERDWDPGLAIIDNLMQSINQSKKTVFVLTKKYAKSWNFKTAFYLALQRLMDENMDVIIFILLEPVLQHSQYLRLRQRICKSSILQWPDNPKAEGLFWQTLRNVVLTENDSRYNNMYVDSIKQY
Experimental: as §1, §2

Structure (SMILES): COc1ccc2c(c1O)[C@@]13CCN(C)[C@@H](C2)[C@H]1CC(OC)C(=O)C3 (stereo partly drawn) [Dihydrosinomenine, dihydrosinomenine]
- Average % Inhibition at TLR7 (TLR7): 11%
- Average % Inhibition at TLR8 (TLR8): 21%

Structure (SMILES): COC1=C[C@@H]2[C@@H]3Cc4ccc(OC)c(O)c4[C@]2(CCN3C)CC1=O [Sinomenine, sinomenine]
- inhibition at 10 µM (TLR7; HEK293, stimulated with CL097 at 1 μg/ml): 20%
- inhibition at 10 µM (TLR8; HEK293, stimulated with CL075 at 1 μg/ml): 20%

Structure (SMILES): C=CCN1CC[C@]23c4c5ccc(O)c4O[C@H]2C(=O)CC[C@]3(O)[C@H]1C5 [(+)-Naloxone, (+)-naloxone]
- Average % Inhibition at TLR7 (TLR7): 18%
- Average % Inhibition at TLR8 (TLR8): 24%
